Measured values: patent publication US20180353501A1 (Arvinas, Inc., priority 2017, published 2018)

Biological target: T1, p38δ (Homo sapiens, UniProt O15264)
T1 construct: endogenous in cells; host or cells: MDA-MB-231 (intact cells for degradation; cleared cell lysate for CETSA)
T1 sequence (O15264 1-365): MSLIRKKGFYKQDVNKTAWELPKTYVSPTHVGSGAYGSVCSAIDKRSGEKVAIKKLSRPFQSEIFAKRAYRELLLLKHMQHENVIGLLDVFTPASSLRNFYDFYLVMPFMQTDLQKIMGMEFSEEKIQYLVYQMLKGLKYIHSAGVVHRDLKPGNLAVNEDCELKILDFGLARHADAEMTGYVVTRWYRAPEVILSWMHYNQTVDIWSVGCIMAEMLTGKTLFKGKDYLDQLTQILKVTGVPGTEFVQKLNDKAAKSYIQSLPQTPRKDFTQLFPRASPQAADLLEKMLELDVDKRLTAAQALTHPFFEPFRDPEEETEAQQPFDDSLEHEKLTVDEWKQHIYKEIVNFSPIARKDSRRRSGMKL
Test: Cellular thermal shift assay (CETSA), MDA-MB-231 cell lysate
Assay type: cell-based
Conditions: 100 μM, 30 minutes, 51-55° C., vs DMSO
Method: FIGS. 17A and 17B. […] (A) Cellular thermal shift assay (CETSA) was conducted in MDA-MB-231 cells as a means to monitor cellular target engagement. Cell lysate was incubated with either vehicle (DMSO), exemplary compound 50 (100 μM), or exemplary compound 46 (100 μM) for 30 minutes prior to melting at the indicated temperatures. Assay was performed in duplicate and western blots of p38δ and α-tubulin (negative control) are shown. (B) Raw band intensities from (A) were measured, averaged, and reported (with SD) with increasing temperature (51-55° C.) from left-to-right. Top: p38δ CETSA analysis. […] Bottom: α-tubulin CETSA analysis.
To further assess these findings, a more biologically-relevant context for measuring ternary complex formation was used. […] Thus, whether PROTAC-induced PPIs could be monitored in a complex cellular environment using CETSA was examined. […]
CETSA protocol was adapted from (Mateus A, Maatta T A, & Savitski M M (2016) Thermal proteome profiling: unbiased assessment of protein state through heat-induced stability changes. Proteome Sci 15:13). […] After cooling, samples were spun down for 20 minutes (14,000×g at 4° C.) and the supernatant (soluble fraction) was analyzed by SDS-PAGE and immunoblotted for p38δ and alpha-tubulin (negative control).

In the case of COc1cc2c(Oc3ccc(NC(=O)C4(C(=O)Nc5ccc(F)cc5)CC4)cc3F)ccnc2cc1OCCOCCOCCOc1cc(-c2scnc2C)ccc1CNC(=O)[C@@H]1C[C@@H](O)CN1C(=O)[C@H](C(C)C)N1Cc2ccccc2C1=O [compound 46], the “thermal shift in the p38δ melting profile” value was “more pronounced at each melting temperature tested”.
With COc1cc2c(Oc3ccc(NC(=O)C4(C(=O)Nc5ccc(F)cc5)CC4)cc3F)ccnc2cc1OCCCCOCCCCOCC(=O)N[C@H](C(=O)N1C[C@H](O)C[C@H]1C(=O)NCc1ccc(-c2scnc2C)cc1)C(C)(C)C [compound 50, N-(3-fluoro-4-((7-(4-(4-(2-(((S)-1-((2S,4R)-4-hydroxy-2-((4-(4-methylthiazol-5-yl)benzyl)carbamoyl)pyrrolidin-1-yl)-3,3-dimethyl-1-oxobutan-2-yl)amino)-2-oxoethoxy)butoxy)buto-xy)-6-methoxyquinolin-4-yl)oxy)phenyl)-N-(4-fluorophenyl)cyclopropane-1,1-dicarboxa-mide] the “thermal shift in the p38δ melting profile” value was “small, but statistically-significant (p=0.0121) thermal shift”.
